molecular target: T1, HCV NS5B (Hepatitis C virus genotype 1b, UniProt Q9WMX2); assay: HCV NS5B RdRp enzyme assay (preincubation protocol); assay type: biochemical; settings: Table 1, read-out: IC50*
T1 construct: The protein was expressed with an 18 amino acid C-terminal truncation to enhance the solubility; made in house; host or cells: E. coli BL21 (DE3), pET21a
Procedure: HCV NS5B RdRp cloning, expression, and purification. The cDNA encoding the NS5B protein of HCV, genotype 1b, was cloned into the pET21a expression vector. The protein was expressed with an 18 amino acid C-terminal truncation to enhance the solubility. The E. coli competent cell line BL21 (DE3) was used for expression of the protein. Cultures were grown at 37° C. for ˜4 hours until the cultures reached an optical density of 2.0 at 600 nm. The cultures were cooled to 20° C. and induced with 1 mM IPTG. Fresh ampicillin was added to a final concentration of 50 μg/ml and the cells were grown overnight at 20° C.
Cell pellets (3L) were lysed for purification to yield 15-24 mgs of purified NS5B. The lysis buffer consisted of 20 mM Tris-HCl, pH 7.4, 500 mM NaCl, 0.5% triton X-100, 1 mM DTT, 1 mM EDTA, 20% glycerol, 0.5 mg/ml lysozyme, 10 mM MgCl2, 15 ug/ml deoxyribonuclease I, and Complete TM protease inhibitor tablets (Roche). After addition of the lysis buffer, frozen cell pellets were resuspended using a tissue homogenizer. To reduce the viscosity of the sample, aliquots of the lysate were sonicated on ice using a microtip attached to a Branson sonicator. The sonicated lysate was centrifuged at 100,000×g for 1 hr at 4° C. and filtered through a 0.2 μm filter unit (Corning).
The protein was purified using three sequential chromatography steps: Heparin sepharose CL-6B, polyU sepharose 4B, and Hitrap SP sepharose (Pharmacia). The chromatography buffers were identical to the lysis buffer but contained no lysozyme, deoxyribonuclease I, MgCl2 or protease inhibitor and the NaCl concentration of the buffer was adjusted according to the requirements for charging the protein onto the column. Each column was eluted with a NaCl gradient which varied in length from 5-50 column volumes depending on the column type. After the final chromatography step, the resulting purity of the enzyme is >90% based on SDS-PAGE analysis. The enzyme was aliquoted and stored at −80° C.
Standard HCV NS5B RdRp enzyme assay. HCV RdRp genotype 1b assays were run in a final volume of 60 μl in 96 well plates (Costar 3912). The assay buffer is composed of 20 mM Hepes, pH 7.5, 2.5 mM KCl, 2.5 mM MgCl2, 1 mM DTT, 1.6 U RNAse inhibitor (Promega N2515), 0.1 mg/ml BSA (Promega R3961), and 2% glycerol. All compounds were serially diluted (3-fold) in DMSO and diluted further in water such that the final concentration of DMSO in the assay was 2%. HCV RdRp genotype 1b enzyme was used at a final concentration of 28 nM. A polyA template was used at 6 nM, and a biotinylated oligo-dT12 primer was used at 180 nM final concentration. Template was obtained commercially (Amersham 27-4110). Biotinylated primer was prepared by Sigma Genosys. 3H-UTP was used at 0.6 μCi (0.29 μM total UTP). Reactions were initiated by the addition of enzyme, incubated at 30° C. for 60 min, and stopped by adding […] of 50 mM EDTA containing SPA beads (4 μg/μl, Amersham RPNQ 0007). Plates were read on a Packard Top Count NXT after >1 hr incubation at room temperature.
Modified HCV NS5B RdRp enzyme assay. A modified enzyme assay was performed essentially as described for the standard enzyme assay except for the following: The biotinylated oligo dT12 primer was precaptured on streptavidin-coated SPA beads by mixing primer and beads in assay buffer and incubating at room temperature for one hour. Unbound primer was removed after centrifugation. The primer-bound beads were resuspended in 20 mM Hepes buffer, pH 7.5 and used in the assay at final concentrations of […] primer and 0.67 μg/μl beads. Order of addition in the assay: Enzyme (14 nM) was added to diluted compound followed by the addition of a mixture of template (0.2 nM), 3H-UTP (0.6 μCi, 0.29 μM), and primer-bound beads, to initiate the reaction; concentrations given are final. Reactions were allowed to proceed for 4 hours at 30° C.
IC50 values for compounds were determined using seven different [I]. […]

T1 sequence (Q9WMX2 2420-2992): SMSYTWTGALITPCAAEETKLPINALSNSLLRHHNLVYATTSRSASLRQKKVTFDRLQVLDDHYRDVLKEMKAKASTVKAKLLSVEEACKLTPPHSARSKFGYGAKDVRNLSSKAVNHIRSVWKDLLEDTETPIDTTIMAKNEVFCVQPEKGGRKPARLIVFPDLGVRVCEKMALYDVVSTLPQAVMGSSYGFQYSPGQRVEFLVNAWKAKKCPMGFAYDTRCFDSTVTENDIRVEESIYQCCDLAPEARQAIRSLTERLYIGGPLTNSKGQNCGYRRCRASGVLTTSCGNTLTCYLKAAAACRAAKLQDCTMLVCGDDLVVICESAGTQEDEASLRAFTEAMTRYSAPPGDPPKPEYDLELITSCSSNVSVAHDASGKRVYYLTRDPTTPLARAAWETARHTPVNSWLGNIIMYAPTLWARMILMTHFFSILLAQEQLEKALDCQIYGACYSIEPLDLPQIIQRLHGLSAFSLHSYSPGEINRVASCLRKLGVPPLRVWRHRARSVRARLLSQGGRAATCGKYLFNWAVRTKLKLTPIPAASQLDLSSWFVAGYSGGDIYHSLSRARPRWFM

| SMILES | IC50 |
| --- | --- |
| CN(C)S(=O)(=O)NC(=O)c1ccc2c(C3CCCCC3)c3n(c2c1)CC(C(=O)N1CCC(F)CC1)=Cc1ccccc1-3 [drawing 74] | 10 to 1000 nM |
| CON(C)S(=O)(=O)NC(=O)c1ccc2c(C3CCCCC3)c3n(c2c1)CC(C(=O)N1CCOCC1)=Cc1ccccc1-3 [drawing 90] | 10 to 1000 nM |
| CN(C)S(=O)(=O)NC(=O)c1ccc2c(C3CCCCC3)c3n(c2c1)CC(C(=O)N1CCC(N2CCOCC2)CC1)=Cc1cc(OCc2ccccc2)ccc1-3 [drawing 139] | 10 to 1000 nM |

same assay, conditions: Table 1a, read-out: IC50*

| SMILES | IC50 |
| --- | --- |
| O=C(O)c1ccc2c(C3CCCCC3)c3n(c2c1)CC(NC(=O)C1CCOCC1)Cc1ccccc1-3 (stereo not shown) | 10 to 1000 nM |
| O=C(NCc1nc2ccccc2[nH]1)c1ccc2c(C3CCCCC3)c3n(c2c1)CC(C(=O)N1CCC(N2CCOCC2)CC1)=Cc1ccccc1-3 | 10 to 1000 nM |
| COC(=O)[C@@H]1C[C@@H](O)CN1C(=O)C1=Cc2cc(OC)ccc2-c2c(C3CCCCC3)c3ccc(C(=O)NS(=O)(=O)N(C)C)cc3n2C1 | 10 to 1000 nM |
| COc1ccc2c(c1)C=C(C(=O)N1CCN(C(C)=O)CC1)Cn1c-2c(C2CCCCC2)c2ccc(C(=O)NS(=O)(=O)N(C)C)cc21 | 10 to 1000 nM |
| COc1ccc2c(c1)C=C(C(=O)N1C[C@H](O)C[C@H]1C(=O)Nc1ccc3c(C)cc(=O)oc3c1)Cn1c-2c(C2CCCCC2)c2ccc(C(=O)NS(=O)(=O)N(C)C)cc21 | 10 to 1000 nM |
| COc1ccc2c(c1)C=C(C(=O)N1CCN(C(=O)c3ccco3)CC1)Cn1c-2c(C2CCCCC2)c2ccc(C(=O)NS(=O)(=O)N(C)C)cc21 | 10 to 1000 nM |
| COc1ccc2c(c1)C=C(C(=O)N1CCN(c3ccccc3OC)CC1)Cn1c-2c(C2CCCCC2)c2ccc(C(=O)NS(=O)(=O)N(C)C)cc21 | 10 to 1000 nM |
| COc1ccc2c(c1)C=C(C(=O)N1CCN(C(=O)N(C)C)CC1)Cn1c-2c(C2CCCCC2)c2ccc(C(=O)NS(=O)(=O)N(C)C)cc21 | 10 to 1000 nM |
| COc1ccc2c(c1)C=C(C(=O)N1CCN(C(=O)N3CCCC3)CC1)Cn1c-2c(C2CCCCC2)c2ccc(C(=O)NS(=O)(=O)N(C)C)cc21 | 10 to 1000 nM |
| COc1ccc2c(c1)C=C(C(=O)N1CCN(C(=O)N3CCCCC3)CC1)Cn1c-2c(C2CCCCC2)c2ccc(C(=O)NS(=O)(=O)N(C)C)cc21 | 10 to 1000 nM |
| COc1ccc2c(c1)C=C(C(=O)N1CCC(O)(c3cccnc3)CC1)Cn1c-2c(C2CCCCC2)c2ccc(C(=O)NS(=O)(=O)N(C)C)cc21 | 10 to 1000 nM |
| COc1ccc2c(c1)C=C(C(=O)N1CCC3(CC1)OC(=O)c1ccccc13)Cn1c-2c(C2CCCCC2)c2ccc(C(=O)NS(=O)(=O)N(C)C)cc21 | 10 to 1000 nM |
| COC(=O)CNC(=O)CNC(=O)C1=Cc2cc(OC)ccc2-c2c(C3CCCCC3)c3ccc(C(=O)NS(=O)(=O)N(C)C)cc3n2C1 | 10 to 1000 nM |
| COc1ccc2c(c1)C=C(C(=O)N1CCN(C(=O)CO)CC1)Cn1c-2c(C2CCCCC2)c2ccc(C(=O)NS(=O)(=O)N(C)C)cc21 | 10 to 1000 nM |
| CN(C)S(=O)(=O)NC(=O)c1ccc2c(C3CCCCC3)c3n(c2c1)CC(NC(=O)C1CCOCC1)Cc1ccccc1-3 (stereo not shown) | 10 to 1000 nM |
| CN(C)S(=O)(=O)NC(=O)c1ccc2c(C3CCCCC3)c3n(c2c1)C[C@@H](NC(=O)N1CCOCC1)Cc1ccccc1-3 | 10 to 1000 nM |
| CN(C)S(=O)(=O)NC(=O)c1ccc2c(C3CCCCC3)c3n(c2c1)C[C@H](NC(=O)N1CCOCC1)Cc1ccccc1-3 | 10 to 1000 nM |
| COc1ccc2c(c1)C=C(C(=O)NCCNC(C)=O)Cn1c-2c(C2CCCCC2)c2ccc(C(=O)NS(=O)(=O)N(C)C)cc21 | 10 to 1000 nM |

| SMILES | IC50 |
| --- | --- |
| COc1ccc2c(c1)C=C(C(=O)N1CCC[C@H]1C(=O)N(C)C)Cn1c-2c(C2CCCCC2)c2ccc(C(=O)NS(=O)(=O)N(C)C)cc21 | 10 to 1000 nM |
| COc1ccc2c(c1)C=C(C(=O)N1CCC(Oc3ncccn3)CC1)Cn1c-2c(C2CCCCC2)c2ccc(C(=O)NS(=O)(=O)N(C)C)cc21 | 10 to 1000 nM |
| COc1ccc2c(c1)C=C(C(=O)N1CCN(c3nccs3)CC1)Cn1c-2c(C2CCCCC2)c2ccc(C(=O)NS(=O)(=O)N(C)C)cc21 | 10 to 1000 nM |
| COc1ccc2c(c1)C=C(C(=O)N1CCOC(c3ccccc3)C1)Cn1c-2c(C2CCCCC2)c2ccc(C(=O)NS(=O)(=O)N(C)C)cc21 (stereo not shown) | 10 to 1000 nM |
| COc1ccc2c(c1)C=C(C(=O)N1CCn3cnnc3C1)Cn1c-2c(C2CCCCC2)c2ccc(C(=O)NS(=O)(=O)N(C)C)cc21 | 10 to 1000 nM |
| COc1ccc2c(c1)C=C(C(=O)N1CCN(c3ncncn3)CC1)Cn1c-2c(C2CCCCC2)c2ccc(C(=O)NS(=O)(=O)N(C)C)cc21 | 10 to 1000 nM |
| COc1ccc2c(c1)C=C(C(=O)NCCN1C[C@@H](C)O[C@@H](C)C1)Cn1c-2c(C2CCCCC2)c2ccc(C(=O)NS(=O)(=O)N(C)C)cc21 | 10 to 1000 nM |
| COc1ccc2c(c1)C=C(C(=O)N(C)C1CCS(=O)(=O)C1)Cn1c-2c(C2CCCCC2)c2ccc(C(=O)NS(=O)(=O)N(C)C)cc21 (stereo not shown) | 10 to 1000 nM |
| COc1ccc2c(c1)C=C(C(=O)N1CCS(=O)(=O)CC1)Cn1c-2c(C2CCCCC2)c2ccc(C(=O)NS(=O)(=O)N(C)C)cc21 | 10 to 1000 nM |
| O=C(NCc1nnn[nH]1)c1ccc2c(C3CCCCC3)c3n(c2c1)CC(C(=O)N1CCC(N2CCOCC2)CC1)=Cc1ccccc1-3 | 10 to 1000 nM |
| O=C(NCc1ccccn1)c1ccc2c(C3CCCCC3)c3n(c2c1)CC(C(=O)N1CCC(N2CCOCC2)CC1)=Cc1ccccc1-3 | 10 to 1000 nM |
| O=C(NCc1cn2ccccc2n1)c1ccc2c(C3CCCCC3)c3n(c2c1)CC(C(=O)N1CCC(N2CCOCC2)CC1)=Cc1ccccc1-3 | 10 to 1000 nM |
| Cc1cnc(CNC(=O)c2ccc3c(C4CCCCC4)c4n(c3c2)CC(C(=O)N2CCC(N3CCOCC3)CC2)=Cc2ccccc2-4)cn1 | 10 to 1000 nM |
| C[C@@H]1CN(C(=O)C2=Cc3c(ccc4c3OCO4)-c3c(C4CCCCC4)c4ccc(C(=O)O)cc4n3C2)C[C@H](C)O1 | 10 to 1000 nM |
| COc1ccc2c(c1)C=C(C(=O)N1CCOC(CN3CCCC3)C1)Cn1c-2c(C2CCCCC2)c2ccc(C(=O)NS(=O)(=O)N(C)C)cc21 (stereo not shown) | 10 to 1000 nM |
| O=C(NCc1ccco1)c1ccc2c(C3CCCCC3)c3n(c2c1)CC(C(=O)N1CCC(N2CCOCC2)CC1)=Cc1ccccc1-3 | 10 to 1000 nM |
| O=C(NC[C@H]1CCCO1)c1ccc2c(C3CCCCC3)c3n(c2c1)CC(C(=O)N1CCC(N2CCOCC2)CC1)=Cc1ccccc1-3 | 10 to 1000 nM |

same assay, conditions: Table 1b, read-out: IC50*

| SMILES | IC50 |
| --- | --- |
| COC(=O)c1ccc2c(C3CCCCC3)c3n(c2c1)CC(C(=O)NCC=O)=Cc1cc(OC)ccc1-3 | 20 to 1000 nM |
| COc1ccc2c(c1)C=C(C(=O)N1C[C@H](CO)[C@@H](O)[C@H](O)C1)Cn1c-2c(C2CCCCC2)c2ccc(C(=O)NS(=O)(=O)N(C)C)cc21 | < 20 nM |
| COc1ccc2c(c1)C=C(C(=O)N(C)[C@H](C)C(=O)N(C)C)Cn1c-2c(C2CCCCC2)c2ccc(C(=O)NS(=O)(=O)N(C)C)cc21 | < 20 nM |
| COc1ccc2c(c1)C=C(C(=O)N(C)[C@H](C)C(=O)N1CCOCC1)Cn1c-2c(C2CCCCC2)c2ccc(C(=O)NS(=O)(=O)N(C)C)cc21 | < 20 nM |
| O=C(O)c1ccc2c(C3CCCCC3)c3n(c2c1)CC(C(=O)N1CCOC(CO)C1)=Cc1cc(F)ccc1-3 (stereo not shown) | 20 to 1000 nM |
| COC(=O)c1ccc2c(C3CCCCC3)c3n(c2c1)CC(C(=O)N1CCOC(CO)C1)=Cc1cc(F)ccc1-3 (stereo not shown) | 20 to 1000 nM |
| COC(=O)c1ccc2c(C3CCCCC3)c3n(c2c1)CC(C(=O)N[C@@H]1C2CCC(C)([C@@H]1O)C2(C)C)=Cc1cc(OC)ccc1-3 (stereo partly shown) | > 12500 nM |
| COc1ccc2c(c1)C=C(C(=O)N1C[C@@H](C)N(C(C)C)[C@@H](C)C1)Cn1c-2c(C2CCCCC2)c2ccc(C(=O)NS(=O)(=O)N(C)C)cc21 | 20 to 1000 nM |

— patent US7473688B2, “Indolobenzazepine HCV NS5B inhibitors” (Bristol-Myers Squibb Company, priority 2005, dated 2009)
